# Measured values as given in patent publication US20180021307A1, “Combination Treatment” (UCB Biopharma SPRL, priority 2015, published 2018).
# How the values were obtained:
# [1] = clinical population pharmacokinetic analysis; cited from earlier work
# anti-convulsive effect = settings: published values; cited from earlier work
# [2] = test system: secondarily generalized seizures in fully amygdala-kindled rats; assay: Amygdala kindling in rats; type: in vivo; settings: for Protection n/N / Seizure score Mean ± SEM: oral; for Seizure score Mean ± SEM: Racine's scale
# 6 Hz-induced seizures = assay: 6 Hz seizure test in mice with isobolographic analysis; type: in vivo; settings: for ED50add ± SEM: drug administered alone, i.p., 30 min before the test, NMRI mice; for anticonvulsant effects against 6 Hz seizure: mice
# Experimental: According and Deckers et al. (2000) an isobolographic method used and evaluate interactions among AEDs is considered and be the optimal method for detecting synergy, additivity or antagonism among AEDs in animal models of epilepsy, such as the 6 Hz seizure model in mice. For isobolographic analysis, the experimental (EDmix) and theoretical additive (EDadd) ED50 values are determined from the dose-response curves of combined drugs. ED50 is defined as a dose of a drug protecting 50% of the animals against 6 Hz-induced seizures. ED50mix is an experimentally determined total dose of the mixture of two component drugs, which were administered in the fixed-ratio combination sufficient for a 50% protective effect. Conversely, ED50add represents a total additive dose of two drugs (calculated from the line of additivity), theoretically providing 50% protection against seizures.
# The term “interaction index a” refers and the ratio of ED50mix/ED50add. This ratio seems and be a good describer of the strength of interaction between two AEDs in isobolographic analysis (Luszczki et al., 2003; Berenbaum, 1989; Tallarida et al., 1999; Tallarida, 2001, 2002). If ED50mix=ED50add, then α=1. Small derivations of a from 1 may not be considered as significant. If a is smaller than 0.7, this may indicate a synergistic effect. If the index is larger than 1.3, this may indicate an antagonistic effect, and if the index is in between this may indicate purely additive interaction (Luszczki et al., 2003; Kerry et al., 1975; Bourgeois, Wad, 1984, 1988; Bourgeois, 1988).
# According and Deckers et al. (2000) an isobolographic method is used to evaluate interactions among AEDs and it is considered to be the optimal method for detecting synergy, additivity or antagonism among AEDs in animal models of epilepsy. The 6 Hz seizure model was performed as previously described (Kaminski et al., 2004). Briefly, mice were stimulated through corneal electrodes connected to an electrical stimulator (ECT Unit 5780, Ugo-Basile, Comerio, Italy) delivering a constant current (0.2 ms duration monopolar rectangular pulses at 6 Hz for 3 s). A drop of saline containing 0.4% oxybuprocaine hydrochloride (Unicaine, Thea, France) was applied on the eyes before stimulation and provide local anesthesia and ensure optimal current conductivity. During the stimulation, each mouse was manually restrained then gently released into the observation cage (38×26×14 cm) immediately after the current application. The seizures were often preceded by a brief period (˜2-3 s) of locomotor agitation (running and jumping). […] The main seizure endpoint was the duration of the immobility. Mice resuming normal behavior within 7 s after the end of the stimulation were considered as not displaying seizure behavior.
# The experiments were performed on adult male NMRI mice (Charles River, France) weighing between 24 and 36 g. The mice were kept in colony cages with free access and food and water, under standard laboratory conditions with natural light-dark cycle. After 1 week adaptation the animals were randomly assigned and experimental groups consisting of ten mice. Each mouse was used only once. All experiments were performed between 9 am and 4 pm. Procedures involving animals and their care were conducted in accordance with current European Community regulations.
# Fresh drug solutions were prepared ex tempore on each day of experimentation. These pretreatment times before testing of BRV/LCM were based on information about their biologic activity from the literature.
# The isobolographic analysis is based on a comparison of equieffective drug doses. In the present study, interactions between drugs, as regards their anticonvulsant efficacy against 6 Hz seizure test were evaluated isobolographically according and the procedure elaborated by Tallarida (1992); Porreca et al. (1990); Luszczki et al. (2006). […]
# 6 Hz seizures = settings: determined in the anticonvulsant drug screening program of NINDS; cited from earlier work
# [3] = 20 mg/kg alone, 1 h before stimulation, protected against secondarily generalized seizures
# [4] = 40 mg/kg alone, 1 h before stimulation
# [5] = 20 mg/kg alone, 1 h before stimulation
Compound,effect on plasma levels of the other drug [1],ED50 (anti-convulsive effect),"Protection n/N [2, 3]","Protection n/N [2, 4]","Seizure score Mean ± SEM [2, 5]",Seizure score Mean ± SEM ([2]; 40 mg/kg alone),"effect on the protection of animals against secondarily generalized seizures or seizure score ([2]; alone, 20 or 40 mg/kg)",ED50add ± SEM (6 Hz-induced seizures) [mg/kg],anticonvulsant effects against 6 Hz seizure (6 Hz-induced seizures; drug alone),ED50 (6 Hz seizures) [mg/kg],"Protection n/N ([2]; 60 mg/kg alone, 1 h before stimulation)",Seizure score Mean ± SEM ([2]; 60 mg/kg alone),"effect on the protection of animals against secondarily generalized seizures or seizure score ([2]; alone, 20, 40 and 60 mg/kg)","ED50 (6 Hz-induced seizures; Mus musculus, protection of mice against 6 Hz seizures, drug alone) [mg/kg]","anticonvulsant effects against 6 Hz seizure (6 Hz-induced seizures; drug alone, listed as LCM)"
"CCC[C@@H]1CC(=O)N([C@@H](CC)C(N)=O)C1 [Brivaracetam, (2S)-2-((4R)-2-oxo-4-n-propyl-1-pyrrolidinyl) butanamide]",no evidence for any effect,about 50 mg/day,1/8,1/8,4.25 ± 0.41,4.63 ± 0.38,did not produce any significant effect,14.2 ± 1.1,dose-dependent anticonvulsant effects,,,,,,
"COC[C@@H](NC(C)=O)C(=O)NCc1ccccc1 [Lacosamide, R-2-acetamido-N-benzyl-3-methoxypropionamide]",,about 280 mg/day,0/8,1/8,4.75 ± 0.16,4.38 ± 0.50,,8.8 ± 1.1,dose-dependent anticonvulsant effects,9.9,0/8,4.38 ± 0.26,did not have any significant effect,8.8,fully protected
